Values belong to the compound of their own block, whether it stands above or below them. Activity calls are given as the source filed them. No cut-off for these calls is given here.
Tests used:
[1] = biological target: T1, 5-hydroxytryptamine receptor 6 (Homo sapiens, UniProt P50406); test: Displacement of [3H]LSD from 5HT6 receptor expressed in HEK293 cells at 10 uM; type: cell-based
[2] = biological target: T1, 5-hydroxytryptamine receptor 6; test: Displacement of [3H]LSD from 5HT6 receptor expressed in HEK293 cells; type: cell-based
[3] = biological target: 5-hydroxytryptamine receptor 2B (Homo sapiens) (UniProt P41595); test: Binding affinity at 5HT2B receptor at 1 uM
5-hydroxytryptamine receptor 2B (Homo sapiens), sequence (P41595 whole entry): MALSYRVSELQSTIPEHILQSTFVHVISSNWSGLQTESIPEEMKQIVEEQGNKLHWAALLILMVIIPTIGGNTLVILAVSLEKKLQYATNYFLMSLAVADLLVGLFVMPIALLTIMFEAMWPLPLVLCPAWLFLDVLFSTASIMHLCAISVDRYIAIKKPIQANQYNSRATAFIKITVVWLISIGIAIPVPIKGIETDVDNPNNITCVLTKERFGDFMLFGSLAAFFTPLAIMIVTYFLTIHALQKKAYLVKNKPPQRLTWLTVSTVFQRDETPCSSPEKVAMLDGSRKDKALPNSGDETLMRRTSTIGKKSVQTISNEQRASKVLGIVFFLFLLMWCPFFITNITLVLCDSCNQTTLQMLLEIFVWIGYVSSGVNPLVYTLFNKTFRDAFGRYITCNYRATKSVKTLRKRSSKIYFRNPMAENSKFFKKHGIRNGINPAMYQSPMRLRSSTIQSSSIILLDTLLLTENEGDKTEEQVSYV

[4] = biological target: T2, 5-hydroxytryptamine receptor 2C (Homo sapiens) (UniProt P28335); test: Binding affinity at 5HT2C receptor at 1 uM
T2 sequence (whole entry): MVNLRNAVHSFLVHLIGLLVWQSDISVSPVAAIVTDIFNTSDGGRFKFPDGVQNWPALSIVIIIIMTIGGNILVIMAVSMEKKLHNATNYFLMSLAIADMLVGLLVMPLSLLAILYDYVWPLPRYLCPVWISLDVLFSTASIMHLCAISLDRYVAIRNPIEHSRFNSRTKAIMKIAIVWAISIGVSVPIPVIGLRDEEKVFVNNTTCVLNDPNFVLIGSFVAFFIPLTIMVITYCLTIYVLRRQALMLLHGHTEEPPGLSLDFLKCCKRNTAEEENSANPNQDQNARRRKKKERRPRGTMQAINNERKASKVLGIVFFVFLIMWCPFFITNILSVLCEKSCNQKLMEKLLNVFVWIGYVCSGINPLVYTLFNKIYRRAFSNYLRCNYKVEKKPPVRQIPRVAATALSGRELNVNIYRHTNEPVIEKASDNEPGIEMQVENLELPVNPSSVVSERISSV

[5] = biological target: T3, 5-hydroxytryptamine receptor 2A (Homo sapiens, UniProt P28223); test: Binding affinity at 5HT2A receptor
T3 sequence (P28223 whole entry): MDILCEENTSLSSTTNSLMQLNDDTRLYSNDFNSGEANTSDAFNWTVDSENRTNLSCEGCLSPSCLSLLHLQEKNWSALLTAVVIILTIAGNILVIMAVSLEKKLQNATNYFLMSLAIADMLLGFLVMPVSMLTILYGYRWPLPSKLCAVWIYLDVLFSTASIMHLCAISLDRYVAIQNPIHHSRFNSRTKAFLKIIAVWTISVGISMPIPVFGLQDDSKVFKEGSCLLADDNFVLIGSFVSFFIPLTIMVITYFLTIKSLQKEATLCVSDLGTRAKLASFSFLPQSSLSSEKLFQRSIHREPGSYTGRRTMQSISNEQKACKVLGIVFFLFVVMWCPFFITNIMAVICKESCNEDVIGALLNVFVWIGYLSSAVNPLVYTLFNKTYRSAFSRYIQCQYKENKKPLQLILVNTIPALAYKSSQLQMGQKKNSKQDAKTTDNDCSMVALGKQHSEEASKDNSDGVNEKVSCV

[6] = biological target: Histamine H1 receptor (Homo sapiens) (UniProt P35367); test: Binding affinity at histamine H1 receptor at 1 uM
Histamine H1 receptor (Homo sapiens), sequence (P35367 whole entry): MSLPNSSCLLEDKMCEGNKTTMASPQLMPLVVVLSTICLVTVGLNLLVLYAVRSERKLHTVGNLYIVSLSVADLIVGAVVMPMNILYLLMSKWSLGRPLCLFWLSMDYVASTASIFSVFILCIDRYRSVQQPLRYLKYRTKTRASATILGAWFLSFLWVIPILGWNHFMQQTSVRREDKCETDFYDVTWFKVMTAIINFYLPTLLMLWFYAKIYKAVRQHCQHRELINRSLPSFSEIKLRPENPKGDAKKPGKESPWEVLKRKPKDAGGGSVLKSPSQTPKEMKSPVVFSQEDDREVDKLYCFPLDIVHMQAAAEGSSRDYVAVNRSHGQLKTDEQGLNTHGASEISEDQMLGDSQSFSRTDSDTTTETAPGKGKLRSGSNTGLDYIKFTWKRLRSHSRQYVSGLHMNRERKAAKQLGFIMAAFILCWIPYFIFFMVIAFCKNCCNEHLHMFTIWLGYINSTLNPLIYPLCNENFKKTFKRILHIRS

[7] = biological target: 5-hydroxytryptamine receptor 7 (Homo sapiens) (UniProt P34969); test: Binding affinity at 5HT7 receptor at 1 uM
5-hydroxytryptamine receptor 7 (Homo sapiens), sequence (P34969 whole entry): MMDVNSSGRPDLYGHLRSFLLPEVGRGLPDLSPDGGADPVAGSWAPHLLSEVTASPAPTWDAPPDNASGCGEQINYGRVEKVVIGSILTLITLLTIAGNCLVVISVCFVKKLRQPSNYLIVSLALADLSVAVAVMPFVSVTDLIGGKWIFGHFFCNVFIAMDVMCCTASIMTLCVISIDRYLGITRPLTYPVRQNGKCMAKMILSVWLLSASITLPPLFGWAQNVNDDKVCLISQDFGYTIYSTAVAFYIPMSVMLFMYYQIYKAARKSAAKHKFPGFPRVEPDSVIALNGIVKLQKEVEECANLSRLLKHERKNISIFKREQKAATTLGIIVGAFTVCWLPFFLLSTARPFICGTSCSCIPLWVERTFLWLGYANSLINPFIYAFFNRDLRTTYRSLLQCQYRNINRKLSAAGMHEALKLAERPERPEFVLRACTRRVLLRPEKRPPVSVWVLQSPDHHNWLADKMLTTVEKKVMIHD

[8] = biological target: 5-hydroxytryptamine receptor 7 (Homo sapiens) (UniProt P34969); test: Inhibition of 5HT7 receptor at 10 uM
[9] = biological target: 5-hydroxytryptamine receptor 2B (Homo sapiens) (UniProt P41595); test: Inhibition of 5HT2B receptor at 10 uM
[10] = biological target: Histamine H1 receptor (Homo sapiens) (UniProt P35367); test: Inhibition of histamine H1 receptor at 10 uM
[11] = biological target: T4, 5-hydroxytryptamine receptor 3A (Homo sapiens) (UniProt P46098); test: Inhibition of 5HT3 receptor at 10 uM
T4 sequence (whole entry): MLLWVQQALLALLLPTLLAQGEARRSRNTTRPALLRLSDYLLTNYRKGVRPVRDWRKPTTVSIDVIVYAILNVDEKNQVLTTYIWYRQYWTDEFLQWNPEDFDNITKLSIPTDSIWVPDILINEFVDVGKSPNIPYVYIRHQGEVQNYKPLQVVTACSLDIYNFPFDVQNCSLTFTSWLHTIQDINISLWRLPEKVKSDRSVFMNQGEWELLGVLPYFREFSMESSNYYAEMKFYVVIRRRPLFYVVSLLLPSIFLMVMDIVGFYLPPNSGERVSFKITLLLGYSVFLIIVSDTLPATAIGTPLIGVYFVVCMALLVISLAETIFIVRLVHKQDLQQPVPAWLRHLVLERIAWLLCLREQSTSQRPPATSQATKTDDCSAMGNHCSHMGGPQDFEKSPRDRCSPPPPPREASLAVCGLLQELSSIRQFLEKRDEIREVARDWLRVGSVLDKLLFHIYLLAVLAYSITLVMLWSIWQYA

[12] = biological target: 5-hydroxytryptamine receptor 4 (Homo sapiens) (UniProt Q13639); test: Inhibition of 5HT4 receptor at 10 uM
5-hydroxytryptamine receptor 4 (Homo sapiens), sequence (Q13639 whole entry): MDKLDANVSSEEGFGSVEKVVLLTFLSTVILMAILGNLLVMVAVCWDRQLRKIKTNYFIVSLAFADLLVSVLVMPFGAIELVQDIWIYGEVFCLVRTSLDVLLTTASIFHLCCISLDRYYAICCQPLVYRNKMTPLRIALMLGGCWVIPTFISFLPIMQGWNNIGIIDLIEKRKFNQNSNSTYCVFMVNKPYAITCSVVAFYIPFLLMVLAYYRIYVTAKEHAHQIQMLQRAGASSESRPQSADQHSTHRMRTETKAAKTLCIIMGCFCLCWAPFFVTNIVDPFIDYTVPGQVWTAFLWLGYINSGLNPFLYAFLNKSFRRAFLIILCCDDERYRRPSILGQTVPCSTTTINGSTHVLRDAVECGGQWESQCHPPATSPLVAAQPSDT

[13] = biological target: T2, 5-hydroxytryptamine receptor 2C (Homo sapiens); test: Inhibition of 5HT2C receptor at 10 uM
[14] = biological target: 5-hydroxytryptamine receptor 1B (Homo sapiens) (UniProt P28222); test: Inhibition of 5HT1B receptor at 10 uM
5-hydroxytryptamine receptor 1B (Homo sapiens), sequence (P28222 whole entry): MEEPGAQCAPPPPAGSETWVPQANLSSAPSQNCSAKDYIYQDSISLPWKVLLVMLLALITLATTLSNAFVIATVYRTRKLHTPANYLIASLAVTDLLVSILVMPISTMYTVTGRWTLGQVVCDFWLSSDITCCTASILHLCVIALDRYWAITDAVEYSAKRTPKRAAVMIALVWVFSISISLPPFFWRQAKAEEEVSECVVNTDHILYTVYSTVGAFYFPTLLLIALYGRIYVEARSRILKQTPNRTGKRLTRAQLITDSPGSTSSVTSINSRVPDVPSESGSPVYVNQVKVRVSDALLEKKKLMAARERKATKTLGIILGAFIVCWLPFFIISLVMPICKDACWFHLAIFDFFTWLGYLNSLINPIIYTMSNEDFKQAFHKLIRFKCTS

[15] = biological target: Sodium-dependent serotonin transporter (Homo sapiens) (UniProt P31645); test: Inhibition of SERT at 10 uM
Sodium-dependent serotonin transporter (Homo sapiens), sequence (P31645 whole entry, looked up): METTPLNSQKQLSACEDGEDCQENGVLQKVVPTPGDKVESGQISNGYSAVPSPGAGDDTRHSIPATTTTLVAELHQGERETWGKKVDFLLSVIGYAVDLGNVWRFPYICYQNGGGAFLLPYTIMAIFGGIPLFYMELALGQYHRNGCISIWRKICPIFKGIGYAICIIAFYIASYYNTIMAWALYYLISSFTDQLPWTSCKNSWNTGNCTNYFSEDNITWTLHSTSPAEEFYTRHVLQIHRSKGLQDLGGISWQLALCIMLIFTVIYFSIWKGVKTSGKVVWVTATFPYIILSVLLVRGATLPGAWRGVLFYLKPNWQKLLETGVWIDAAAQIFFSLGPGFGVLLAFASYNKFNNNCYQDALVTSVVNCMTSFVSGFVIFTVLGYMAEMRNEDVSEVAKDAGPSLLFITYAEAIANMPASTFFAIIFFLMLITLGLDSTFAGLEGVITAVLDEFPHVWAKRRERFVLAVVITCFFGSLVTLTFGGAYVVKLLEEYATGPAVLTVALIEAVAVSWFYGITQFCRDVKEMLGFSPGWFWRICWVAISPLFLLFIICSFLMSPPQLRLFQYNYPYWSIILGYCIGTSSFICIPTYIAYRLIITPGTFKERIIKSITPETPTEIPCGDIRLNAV

[16] = biological target: T5, 5-hydroxytryptamine receptor 1A (Homo sapiens) (UniProt P08908); test: Inhibition of 5HT1A receptor at 10 uM
T5 sequence (whole entry): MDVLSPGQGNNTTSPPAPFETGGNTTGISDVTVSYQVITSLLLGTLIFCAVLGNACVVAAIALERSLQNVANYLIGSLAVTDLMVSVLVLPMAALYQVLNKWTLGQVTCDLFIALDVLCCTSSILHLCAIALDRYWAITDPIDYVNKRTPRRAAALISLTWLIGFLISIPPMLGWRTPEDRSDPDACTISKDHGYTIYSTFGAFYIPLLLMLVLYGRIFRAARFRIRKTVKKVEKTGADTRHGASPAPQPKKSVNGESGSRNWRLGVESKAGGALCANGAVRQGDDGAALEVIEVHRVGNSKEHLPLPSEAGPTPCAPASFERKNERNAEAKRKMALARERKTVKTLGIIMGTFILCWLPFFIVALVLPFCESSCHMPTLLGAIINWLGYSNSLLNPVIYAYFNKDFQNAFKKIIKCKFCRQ

[17] = biological target: 5-hydroxytryptamine receptor 5A (Homo sapiens) (UniProt P47898); test: Inhibition of 5HT5A receptor at 10 uM
5-hydroxytryptamine receptor 5A (Homo sapiens), sequence (P47898 whole entry): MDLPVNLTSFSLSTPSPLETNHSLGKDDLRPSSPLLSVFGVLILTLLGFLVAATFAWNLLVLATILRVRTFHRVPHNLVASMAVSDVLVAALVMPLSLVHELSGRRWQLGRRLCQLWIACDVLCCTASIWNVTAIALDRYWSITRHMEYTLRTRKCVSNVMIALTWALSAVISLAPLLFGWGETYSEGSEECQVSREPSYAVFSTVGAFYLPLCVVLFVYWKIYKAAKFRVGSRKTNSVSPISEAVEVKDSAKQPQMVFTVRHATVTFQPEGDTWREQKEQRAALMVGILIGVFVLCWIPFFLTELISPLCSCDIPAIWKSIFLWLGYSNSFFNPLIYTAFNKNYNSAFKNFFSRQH

[18] = biological target: D(3) dopamine receptor (Homo sapiens) (UniProt P35462); test: Inhibition of dopamine D3 receptor at 10 uM
D(3) dopamine receptor (Homo sapiens), sequence (P35462 whole entry): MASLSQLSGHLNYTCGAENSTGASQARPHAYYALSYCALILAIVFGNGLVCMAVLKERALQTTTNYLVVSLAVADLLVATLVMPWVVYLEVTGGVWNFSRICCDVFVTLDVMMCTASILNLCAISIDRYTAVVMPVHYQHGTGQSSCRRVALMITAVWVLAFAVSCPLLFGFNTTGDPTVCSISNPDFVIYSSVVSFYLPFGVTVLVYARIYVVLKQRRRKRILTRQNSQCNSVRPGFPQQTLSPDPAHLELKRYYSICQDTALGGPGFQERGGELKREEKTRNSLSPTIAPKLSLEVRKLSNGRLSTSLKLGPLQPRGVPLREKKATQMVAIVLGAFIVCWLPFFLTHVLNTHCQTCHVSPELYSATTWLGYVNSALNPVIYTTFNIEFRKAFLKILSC

[19] = biological target: T3, 5-hydroxytryptamine receptor 2A; test: Binding affinity at 5HT2A receptor at 1 uM

T1 sequence (P50406 whole entry): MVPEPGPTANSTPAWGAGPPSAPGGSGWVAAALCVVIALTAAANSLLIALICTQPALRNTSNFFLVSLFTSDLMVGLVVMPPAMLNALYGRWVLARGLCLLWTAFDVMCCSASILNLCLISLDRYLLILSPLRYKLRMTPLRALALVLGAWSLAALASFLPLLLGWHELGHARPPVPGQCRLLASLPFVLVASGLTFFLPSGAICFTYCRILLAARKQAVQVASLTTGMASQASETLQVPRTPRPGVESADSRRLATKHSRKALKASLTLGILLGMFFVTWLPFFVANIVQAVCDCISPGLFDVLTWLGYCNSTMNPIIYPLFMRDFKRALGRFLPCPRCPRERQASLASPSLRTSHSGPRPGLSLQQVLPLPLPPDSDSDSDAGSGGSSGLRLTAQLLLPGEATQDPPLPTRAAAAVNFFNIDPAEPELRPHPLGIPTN

- Activity [1]: 24%
SMILES: COc1ccc(CCNc2cc(N3CCN(C)CC3)ccc2[N+](=O)[O-])cc1OC

- Activity [1]: 49%
SMILES: COc1cc(N2CCN(C)CC2)ccc1NCc1ccccc1

- Activity [1]: 64%
SMILES: CN1CCN(c2ccc(NCc3ccccc3)c([N+](=O)[O-])c2)CC1

- Ki [2]: 1010 nM
SMILES: COc1ccc(N2CCN(C)CC2)cc1NCCc1ccccc1

- Activity [1]: 21%
SMILES: CN1CCN(c2ccc([N+](=O)[O-])c(NCCOc3ccc(Cl)cc3)c2)CC1

SMILES: CN1CCN(c2ccc([N+](=O)[O-])c(Oc3ccccc3)c2)CC1
- Ki [2]: 27 nM

- Ki [2]: 8 nM
SMILES: O=[N+]([O-])c1ccc(N2CCNCC2)cc1NCc1ccc(Cl)cc1

- Activity [1]: 13%
SMILES: CC(Nc1cc(N2CCNCC2)ccc1[N+](=O)[O-])c1ccccc1 (centres undefined)

SMILES: CN1CCN(c2ccc(C#N)c(NCc3ccco3)c2)CC1
- Ki [2]: 1360 nM

- Activity [1]: 59%
SMILES: COc1ccc(CCNc2cc(N3CCNCC3)ccc2[N+](=O)[O-])cc1OC

- Activity [1]: 78%
SMILES: CN1CCN(c2ccc([N+](=O)[O-])c(NCCn3cccc3)c2)CC1

- Activity [1]: 10%
SMILES: Cc1cccc(OCCNc2cc(N3CCN(C)CC3)ccc2[N+](=O)[O-])c1

- Ki [2]: 1490 nM
SMILES: NCCNc1ccc([N+](=O)[O-])c(NCc2ccccc2)c1

- Activity [2]: inactive
SMILES: CN1CCN(c2ccc(C(=O)O)c(NCCc3ccccc3)c2)CC1

- Ki ([2]; hek293): 119 nM
SMILES: CN1CCN(c2ccc([N+](=O)[O-])c(NCCc3ccccc3)c2)CC1

- Ki [2]: 1890 nM
SMILES: COC(=O)c1cc(N2CCN(C)CC2)ccc1NCc1ccccc1

- Ki [2]: 1220 nM
SMILES: CN1CCN(c2ccc([N+](=O)[O-])c(-n3nc(-c4ccccc4)c4ccccc4c3=O)c2)CC1

SMILES: COC(=O)c1ccc(N2CCN(C)CC2)cc1NCc1ccco1
- Activity [1]: 31%

- inhibition [3]: 68%
- inhibition [4]: 72%
- Ki [5]: 47 nM
- inhibition [6]: 65%
- inhibition [7]: 52%
SMILES: CN1CCN(c2ccc(C#N)c(NCc3ccccc3)c2)CC1

- Activity [1]: 49%
SMILES: CN1CCN(c2ccc(C(=O)O)c(NCc3ccccc3)c2)CC1

- Activity [2]: inactive
SMILES: CC(=O)Nc1cc(N2CCN(C)CC2)ccc1N(Cc1ccccc1)C(C)=O

SMILES: CN1CCN(c2ccc([N+](=O)[O-])c(-n3ncccc3=O)c2)CC1
- Activity [1]: 24%

SMILES: CN(C)CCc1c[nH]c2ccc(NS(=O)(=O)c3ccc4c(Cl)cccc4c3)cc12
- Ki [2]: 0.7 nM

SMILES: CN1CCN(c2ccc([N+](=O)[O-])c(NC(=O)c3ccccc3)c2)CC1
- Activity [2]: inactive

SMILES: CN1CCN(c2ccc([N+](=O)[O-])c(NCc3ccco3)c2)CC1
- inhibition [8]: 61%
- inhibition [9]: > 90%
- inhibition [10]: > 90%
- inhibition [11]: < 40%
- inhibition [12]: < 40%
- inhibition [13]: > 90%
- inhibition [14]: 61%
- inhibition [15]: > 90%
- inhibition [16]: 61%
- inhibition [17]: < 40%
- inhibition [18]: > 90%

- Activity [1]: 22%
SMILES: COc1cccc(OCCNc2cc(N3CCN(C)CC3)ccc2[N+](=O)[O-])c1

- Activity [1]: 49%
SMILES: CN1CCN(c2ccc([N+](=O)[O-])c(N(C)C(=O)c3ccccc3)c2)CC1

- Ki [2]: 928 nM
SMILES: CN1CCN(c2ccc(OCc3ccccc3)c(NCc3ccccc3)c2)CC1

SMILES: CN1CCN(c2ccc([N+](=O)[O-])c(NCc3ccccc3)c2)CC1
- Activity [1]: 74%

- Activity [1]: 72%
SMILES: COC(=O)c1ccc(N2CCN(C)CC2)cc1NCc1ccccc1

- Activity [1]: 37%
SMILES: CN1CCN(c2ccc(NCc3ccccc3)c(C(=O)O)c2)CC1

SMILES: COc1ccc(N2CCN(C)CC2)cc1NCc1ccco1
- Activity [1]: 53%

- Ki [2]: 28 nM
SMILES: O=[N+]([O-])c1ccc(N2CCNCC2)cc1NCc1ccccc1

- Activity [1]: 67%
SMILES: Cc1ccc(OCCNc2cc(N3CCN(C)CC3)ccc2[N+](=O)[O-])cc1C

- inhibition [3]: 63%
- inhibition [4]: 14%
- inhibition [6]: 2%
- inhibition [19]: 61%
- inhibition [7]: 6%
SMILES: CN1CCN(c2ccc(NS(=O)(=O)c3ccccc3)c(NCc3ccccc3)c2)CC1

- Activity [2]: inactive
SMILES: CN1CCN(c2ccc(C(=O)O)c(NCc3ccco3)c2)CC1

— ChEMBL document CHEMBL1140533, “Discovery of 5-HT6 receptor ligands based on virtual HTS” (Bioorg Med Chem Lett, 2007)
